Literature values, collected in paper PMC6940698.

Assay: not told

O=C(O)c1cc(S(=O)(=O)O)ccc1O
log partition benzene / water: 0.34 ratio
log partition toluene / water: 0.26 ratio
log partition xylene / water: 0.23 ratio
